This is an account of results in ChEMBL document CHEMBL3045118, “Synthesis and biological activities of new Mannich bases of chlorokojic acid derivatives” (Med Chem Res, 2011).

The MIC is the smallest concentration in the dilution series that meets the test's criterion for growth inhibition.

≈ marks a conversion by molar mass, not a printed value.

For series [1], the system named is Human respirovirus 3. The series is described as follows: Antiviral activity against Human parainfluenza virus 3 infected African green monkey Vero cells assessed as concentration required to cause minimum inhibition of virus-induced cytopathic effect. Type of series: functional. Background: Protection from cytopathic effect is a common read-out in antiviral testing.

Series [2] deals with Human respirovirus 3. Briefly: Antiviral activity against Human parainfluenza virus 3 infected African green monkey Vero cells assessed as concentration required to cause maximum inhibition of virus-induced cytopathic effect. Type of series: functional.
The nature of series [3]: Cytotoxicity against Chlorocebus aethiops (African green monkey) Vero cells assessed as maximum non-toxic concentration. The series is classed as cell-based. The conditions noted are these: chlorocebus sabaeus, read-out: MNCC.
The subject of series [4] is Human alphaherpesvirus 1. Briefly: Antiviral activity against Human herpesvirus 1 infected bovine MDBK cells assessed as concentration required to cause minimum inhibition of virus-induced cytopathic effect. The series is classed as functional.
The subject of series [5] is Human alphaherpesvirus 1. The series is described as follows: Antiviral activity against Human herpesvirus 1 infected bovine MDBK cells assessed as concentration required to cause maximum inhibition of virus-induced cytopathic effect. Type of series: functional.
Series [6] in a line: Cytotoxicity against Bos taurus (bovine) MDBK cells assessed as maximum non-toxic concentration. The series is classed as cell-based. The settings on record: cattle, read-out: MNCC.
The subject of another series is Candida albicans. Briefly: Antifungal activity against Candida albicans ATCC 10231 by microdilution method. The series is classed as functional.
In another series the test system is Candida parapsilosis. The series is described as follows: Antifungal activity against Candida parapsilosis ATCC 22019 by microdilution method. Type of series: functional. The conditions noted are these: Lodderomyces parapsilosis. On the technique in general: Broth dilution looks for growth in wells or tubes with falling amounts of substance.
For series [7], the system named is Bacillus subtilis. Briefly: Antibacterial activity against ceftriaxon-resistant Bacillus subtilis by microdilution method. The series is classed as functional.
Series [8] concerns Enterococcus faecalis. The series is described as follows: Antibacterial activity against cephalosporins and beta-lactam-resistant Enterococcus faecalis by microdilution method. Type of series: functional.
Series [9] deals with Bacillus subtilis. The series is described as follows: Antibacterial activity against Bacillus subtilis ATCC 6633 by microdilution method. The series is classed as functional.
Series [10] relates to Enterococcus faecalis. Briefly: Antibacterial activity against Enterococcus faecalis ATCC 29212 by microdilution method. Type of series: functional.
Series [11] deals with Staphylococcus aureus. The series is described as follows: Antibacterial activity against oxacillin, gentamicin, aztreonam, trimethoprim-sulfamethoxazole-resistant Staphylococcus aureus by microdilution method. Type of series: functional.
Series [12] deals with Staphylococcus aureus. Briefly: Antibacterial activity against Staphylococcus aureus ATCC 25923 by microdilution method. Type of series: functional.
The test system of series [13] is Acinetobacter baumannii. Briefly: Antibacterial activity against trimethoprim-sulfamethoxazole, cefepime-resistant Acinetobacter baumannii by microdilution method. The series is classed as functional.
Series [14] concerns Acinetobacter baumannii. Briefly: Antibacterial activity against Acinetobacter baumannii RSKK 02026 by microdilution method. Type of series: functional.
Series [15] deals with Klebsiella pneumoniae. The series is described as follows: Antibacterial activity against ESbetaL positive trimethoprim-sulfamethoxazole, amoxicillin clavulonat, cefriaxon, cephepim, aztreonam-resistant Klebsiella pneumoniae by microdilution method. The series is classed as functional.
The subject of series [16] is Klebsiella pneumoniae. The series is described as follows: Antibacterial activity against Klebsiella pneumoniae RSKK 574 by microdilution method. The series is classed as functional.
Series [17] concerns Proteus mirabilis. Briefly: Antibacterial activity against Proteus mirabilis ATCC 7002 by microdilution method. The series is classed as functional.
Series [18] relates to Proteus mirabilis. The series is described as follows: Antibacterial activity against ESbetaL positive rimethoprim-sulfamethoxazole, cefepime, tazobactam-resistant Proteus mirabilis by microdilution method. The series is classed as functional.
For series [19], the system named is Pseudomonas aeruginosa. The series is described as follows: Antibacterial activity against trimethoprim-sulfamethoxazole, tazobactam-resistant Pseudomonas aeruginosa by microdilution method. Type of series: functional.
Series [20] deals with Pseudomonas aeruginosa. The series is described as follows: Antibacterial activity against Pseudomonas aeruginosa ATCC 10145 by microdilution method. Type of series: functional.
Series [21] concerns Escherichia coli. The series is described as follows: Antibacterial activity against ESbetaL positive trimethoprim-sulfamethoxazole, cefepime, tazobactam-resistant Escherichia coli isolate by microdilution method. The series is classed as functional.
Series [22] relates to Escherichia coli. Briefly: Antibacterial activity against Escherichia coli ATCC 35218 by microdilution method. The series is classed as functional.

As to `COc1cccc(N2CCN(Cc3oc(CCl)cc(=O)c3O)CC2)c1`, the Activity in the series with Human respirovirus 3 [1] was 0.1 µg/mL; in the series on Human respirovirus 3 [2], 0.4 µg/mL; in the series with Human alphaherpesvirus 1 [4] it was 0.2 µg/mL; in the series on Human alphaherpesvirus 1 [5], 0.8 µg/mL. Besides, the results for the MNTC in series [3] and in series [6] were 1.6 µg/mL and 0.8 µg/mL, respectively. The MIC in the series on Candida albicans came out at 8 µg/mL (≈ 21.9 µM); against Candida parapsilosis, 8 µg/mL (≈ 21.9 µM); in the series on Bacillus subtilis [7] it was 32 µg/mL (≈ 87.7 µM); against Enterococcus faecalis [8], 128 µg/mL (≈ 351 µM); with Bacillus subtilis [9] it was 16 µg/mL (≈ 43.9 µM); with Enterococcus faecalis [10], 64 µg/mL (≈ 175 µM). In addition, the minimum inhibitory concentration (MIC) is 128 µg/mL (≈ 351 µM) against Staphylococcus aureus [11]; 64 µg/mL (≈ 175 µM) against Staphylococcus aureus [12]; 64 µg/mL (≈ 175 µM) with Acinetobacter baumannii [13]; 32 µg/mL (≈ 87.7 µM) against Acinetobacter baumannii [14]; 64 µg/mL (≈ 175 µM) with Klebsiella pneumoniae [15]; 32 µg/mL (≈ 87.7 µM) against Klebsiella pneumoniae [16]. Besides, the MIC stood at 32 µg/mL (≈ 87.7 µM) against Proteus mirabilis [17]; 64 µg/mL in the series on Proteus mirabilis [18]; 64 µg/mL with Pseudomonas aeruginosa [19]; 32 µg/mL (≈ 87.7 µM) in the series on Pseudomonas aeruginosa [20]; 64 µg/mL in the series on Escherichia coli [21]; 32 µg/mL (≈ 87.7 µM) with Escherichia coli [22].
Consider `O=c1cc(CCl)oc(CN2CCN(c3cccc(Cl)c3)CC2)c1O`, for which the Activity with Human respirovirus 3 [1] was 0.025 µg/mL; in the series with Human respirovirus 3 [2], 0.8 µg/mL; in the series on Human alphaherpesvirus 1 [4], 0.1 µg/mL; with Human alphaherpesvirus 1 [5], 0.8 µg/mL. The values for the MNTC in series [3] and in [6] were 0.8 µg/mL and 1.6 µg/mL, respectively. Further, the MIC with Candida albicans stood at 16 µg/mL (≈ 43.3 µM); against Candida parapsilosis, 16 µg/mL (≈ 43.3 µM); in the series with Bacillus subtilis [7], 32 µg/mL (≈ 86.7 µM); against Enterococcus faecalis [8], 128 µg/mL (≈ 347 µM); with Bacillus subtilis [9] it was 16 µg/mL (≈ 43.3 µM); against Enterococcus faecalis [10] it was 8 µg/mL (≈ 21.7 µM). Besides, the MIC with Staphylococcus aureus [11] worked out at 128 µg/mL (≈ 347 µM); against Staphylococcus aureus [12] it was 8 µg/mL (≈ 21.7 µM); in the series with Acinetobacter baumannii [13], 64 µg/mL (≈ 173 µM); with Acinetobacter baumannii [14] it was 32 µg/mL (≈ 86.7 µM); in the series on Klebsiella pneumoniae [15] it was 64 µg/mL (≈ 173 µM); in the series with Klebsiella pneumoniae [16] it was 32 µg/mL (≈ 86.7 µM). Besides, the MIC against Proteus mirabilis [17] stood at 32 µg/mL (≈ 86.7 µM); in the series with Proteus mirabilis [18], 64 µg/mL; in the series on Pseudomonas aeruginosa [19], 64 µg/mL; with Pseudomonas aeruginosa [20] it was 32 µg/mL (≈ 86.7 µM); with Escherichia coli [21] it was 64 µg/mL; against Escherichia coli [22], 32 µg/mL (≈ 86.7 µM).
Take `COc1ccccc1N1CCN(Cc2oc(CCl)cc(=O)c2O)CC1`: the Activity was determined as 0.05 µg/mL in the series with Human respirovirus 3 [1], 0.2 µg/mL with Human respirovirus 3 [2], 0.2 µg/mL in the series with Human alphaherpesvirus 1 [4] and 0.8 µg/mL in the series with Human alphaherpesvirus 1 [5]. Further, the results for the MNTC in [3] and in series [6] were 1.6 µg/mL and 0.8 µg/mL, respectively. The MIC stood at 8 µg/mL (≈ 21.9 µM) against Candida albicans; 8 µg/mL (≈ 21.9 µM) in the series on Candida parapsilosis; 32 µg/mL (≈ 87.7 µM) in the series with Bacillus subtilis [7]; 128 µg/mL (≈ 351 µM) against Enterococcus faecalis [8]; 16 µg/mL (≈ 43.9 µM) in the series on Bacillus subtilis [9]; 64 µg/mL (≈ 175 µM) in the series on Enterococcus faecalis [10]. The MIC amounted to 128 µg/mL (≈ 351 µM) in the series with Staphylococcus aureus [11]; 64 µg/mL (≈ 175 µM) in the series with Staphylococcus aureus [12]; 64 µg/mL (≈ 175 µM) in the series on Acinetobacter baumannii [13]; 32 µg/mL (≈ 87.7 µM) in the series on Acinetobacter baumannii [14]; 64 µg/mL (≈ 175 µM) in the series on Klebsiella pneumoniae [15]; 32 µg/mL (≈ 87.7 µM) with Klebsiella pneumoniae [16]. Also, the MIC in the series on Proteus mirabilis [17] was 32 µg/mL (≈ 87.7 µM); in the series on Proteus mirabilis [18], 64 µg/mL; in the series on Pseudomonas aeruginosa [19], 64 µg/mL; in the series on Pseudomonas aeruginosa [20] it was 32 µg/mL (≈ 87.7 µM); in the series on Escherichia coli [21], 64 µg/mL; in the series on Escherichia coli [22], 32 µg/mL (≈ 87.7 µM).
Turning to `O=c1cc(CCl)oc(CN2CCN(c3ccccc3Cl)CC2)c1O`, the Activity was 0.2 µg/mL with Human respirovirus 3 [1], 0.4 µg/mL in the series with Human respirovirus 3 [2], 0.1 µg/mL in the series on Human alphaherpesvirus 1 [4] and 0.4 µg/mL in the series with Human alphaherpesvirus 1 [5]. Moreover, the MNTC was 0.4 µg/mL in series [3] and 1.6 µg/mL in series [6]. The minimal inhibitory concentration (MIC) was 16 µg/mL (≈ 43.3 µM) against Candida albicans; 16 µg/mL (≈ 43.3 µM) in the series on Candida parapsilosis; greater than 128 µg/mL against Bacillus subtilis [7]; greater than 128 µg/mL against Enterococcus faecalis [8]; 16 µg/mL (≈ 43.3 µM) in the series on Bacillus subtilis [9]; 8 µg/mL (≈ 21.7 µM) against Enterococcus faecalis [10]. The MIC in the series with Staphylococcus aureus [11] was greater than 128 µg/mL; against Staphylococcus aureus [12], 8 µg/mL (≈ 21.7 µM); in the series with Acinetobacter baumannii [13] it was greater than 128 µg/mL; with Acinetobacter baumannii [14], 64 µg/mL (≈ 173 µM); in the series with Klebsiella pneumoniae [15] it was greater than 128 µg/mL; against Klebsiella pneumoniae [16], 64 µg/mL (≈ 173 µM). Further, the minimal inhibitory concentration (MIC) is 64 µg/mL (≈ 173 µM) with Proteus mirabilis [17]; greater than 128 µg/mL in the series with Proteus mirabilis [18]; greater than 128 µg/mL in the series with Pseudomonas aeruginosa [19]; 64 µg/mL (≈ 173 µM) with Pseudomonas aeruginosa [20]; greater than 128 µg/mL in the series with Escherichia coli [21]; 64 µg/mL (≈ 173 µM) against Escherichia coli [22].
